One assay has as its system MCF-7 cells. The following applies: read-out: EC50 in inhibiting MCF-7 cell growth; cited from earlier work.
In the next assay the test system is human erythrocytes. Put plainly: Protective effect on human erythrocytes (AAPH-induced hemolysis). It counts as cell-based. To be noted: Erythrocyte, 37 °C, 3 h, read-out: Hemolytic Inhibition IC50. The method, then:
Hemolysis was induced by peroxyl radicals generated by AAPH (2-2'-Azobis (2-amidinopropane dihydrochloride) according to the methodology of Silva-Beltrán et al.. Then, 5 mL of blood was obtained from healthy human volunteers by venipuncture and collected into tubes containing EDTA as an anticoagulant. Erythrocytes were separated from plasma by centrifugation at 1500 rpm for 10 min at room temperature and washed three times with five volumes of phosphate-buffered saline (PBS) (37 mM of NaCl, 2.7 mM of KCI, 8 mM of Na2HPO4, and 2 mM of KH2PO4 w/v) at pH 7.4. Later, erythrocytes were suspended in four volumes of PBS solution to obtain a density of 8 × 10^9 cells/mL. The addition of AAPH to the suspension of washed erythrocytes induces oxidation of membrane lipids and proteins, resulting in hemolysis. The erythrocyte suspension (250 μL) was mixed with 250 μL of fruit extracts dissolved in PBS at concentrations of 500, 750, 1000, 2000 μg/mL and 250 μL of 300 mM AAPH in PBS. The reaction mixture was shaken gently while being incubated at 37 °C for 3 h. […] The supernatant's absorbance was measured in a microplate reader (Agilent BioTek Epoch, Santa Clara, CA, United States) at 540 nm. Percent inhibition was calculated by the following equation:% Inhibition = [[…] × 100] where AAAPH is the absorbance of AAPH at 540 nm and As is the absorbance of the extracts at 540 nm. […]

A further assay relates to erythrocytes. To be noted: cited from earlier work.
In a further assay the test system is HeLa cells. Put plainly: Antiproliferative activity, Alamar Blue, HeLa. To be noted: Homo sapiens, 24 h exposure, read-out: Half Maximal Inhibitory Concentration HeLa. It counts as cell-based. The method, then: (§1) The antiproliferative effects of extracts of E. tinifolia and S. lanuginosum were assessed using the method described previously by Viveros-Valdez, et al.. HeLa (ATCC® CCL-2), MCF-7 (ATCC® HTB-22) and HT-29 (ATCC® HTB-38) cancer cell lines were used. The cells were seeded in 25 cm^2 tissue culture flasks in Dulbecco’s modified eagle medium (DMEM) mixed with Ham’s nutrients (Ham’s F-12) and supplemented with 10% fetal bovine serum (FBS), adjusting the pH to 7.2. A mixture of antibiotics composed of penicillin and streptomycin (10,000 IU/mL: 10,000 µg/mL; 1 mL of mixture/1 L of medium) was added. Cells were maintained at 37 °C in an incubator under a 5% CO2/95% air atmosphere at constant humidity. Cells were harvested by trypsinization, counted with a hemocytometer, and their viability was confirmed by Trypan Blue (0.4%). The different cancer cell lines were seeded with 5000 cells per well in a 96 well plate.

A further assay concerns HT-29 cells. Put plainly: Antiproliferative activity, Alamar Blue, HT-29. It is filed as cell-based. The following applies: Homo sapiens, 24 h exposure, read-out: Half Maximal Inhibitory Concentration HT-29. On the procedure: as §1

≈ marks a conversion by molar mass, not a printed value.

For `O=c1c(O[C@@H]2O[C@H](CO)[C@@H](O)[C@H](O)[C@H]2O)c(-c2ccc(O)c(O)c2)oc2cc(O)cc(O)c12` [QG, quercetin glucoside], the EC50 with MCF-7 cells is 46.4 µM.

As to `O=C1O[C@H]([C@@H](O)CO)C(O)=C1O` [ascorbic acid], the IC50 in the assay on human erythrocytes was found to be 289 ± 20 µg/mL (≈ 1640 µM).

For the compound `Oc1cc(O)c2c(c1)O[C@H](c1ccc(O)c(O)c1)[C@H](O)C2` [epicatechin], the “hemolysis inhibition IC50” value in the assay on erythrocytes was 42.3 µg/mL.

Take `CC(=O)O[C@H]1C(=O)[C@@]2(C)[C@H]([C@H](OC(=O)c3ccccc3)[C@]3(O)C[C@H](OC(=O)[C@H](O)[C@@H](NC(=O)c4ccccc4)c4ccccc4)C(C)=C1C3(C)C)[C@]1(OC(C)=O)CO[C@@H]1C[C@@H]2O` [taxol, Taxol]: the IC50 amounted to 11 ± 2 µg/mL (≈ 12.9 µM) in the assay with HeLa cells and 15 ± 1 µg/mL (≈ 17.6 µM) in the assay on HT-29 cells.

Values taken from publication PMC8624189, “Phenolic Profiles and Biological Activities of Extracts from Edible Wild Fruits Ehretia tinifolia and Sideroxylon lanuginosum” (Foods, 2021).
